Source: US20240033272A1, “USE OF C[…] THE TREATMENT OF SEIZURES ASSOCIATED WITH HERPES SIMPLEX VIRUS” (GW Research Limited, priority 2020, published 2024)

System: patients diagnosed with herpes simplex virus (seizures associated with herpes simplex virus)
Assay: Open label, expanded-access program: seizure frequency recorded by caregivers in a diary, change relative to baseline
Type: in vivo, human
Design: Reduction in myoclonic seizures over the treatment period / Reduction in absence seizures over the treatment period / Reduction in focal seizures with impairment over the treatment period / Reduction in tonic-clonic seizures over the treatment period / Reduction in atonic seizures over the treatment period / Reduction in tonic seizures over the treatment period: concentration or dose not given beside the values; Seizure frequency, tonic-clonic / Seizure frequency, myoclonic / Seizure frequency, absence / Seizure frequency, focal with impairment / Seizure frequency, tonic / Seizure frequency, focal without impairment / Seizure frequency, atonic: unit not given here
Conditions: for Seizure frequency, atonic: baseline 20.0
Description: Subjects were required to be on one or more AEDs at stable doses for a minimum of two weeks prior to baseline and to have stable vagus nerve stimulation (VNS) settings and ketogenic diet ratios for a minimum of four weeks prior to baseline.
Modifications were made to concomitant AEDs as per clinical indication.
Seizure frequency, intensity, and duration were recorded by caregivers in a diary during a baseline period of at least 28 days. Changes in seizure frequency relative to baseline were calculated after at least 2 weeks and at defined timepoints of treatment.
Patients may be defined as responders if they had more than 50% reduction in seizure frequency compared to baseline. The percent change in seizure frequency was calculated as follows: […]
The percent change of seizure frequency may be calculated for any time interval where seizure number has been recorded. For the purpose of this example the percent change of seizure frequency for the end of the treatment period was calculated as follows: […]

[1] = Patient 1, treated for 48 weeks, vs baseline
[2] = Patient 2, 4 weeks, CBD 25.0 mg/kg/day, baseline 8.0
[3] = Patient 2, 8 weeks, CBD 25.0 mg/kg/day, baseline 8.0
[4] = Patient 2, 24 weeks, CBD 25.0 mg/kg/day, baseline 8.0
[5] = Patient 3, treated for 108 weeks, vs baseline

Which “Time of treatment after which patient became completely seizure free, focal seizures with impairment” value (Patient 1) does the source give for `C=C(C)[C@@H]1CCC(C)=C[C@H]1c1c(O)cc(CCCCC)cc1O` [CBD, cannabidiol] here?
The value was 24 weeks.

And the “Time of treatment after which patient became completely seizure free, myoclonic seizures” value (Patient 1)?
The value was 8 weeks.

And the “Seizure frequency, tonic-clonic” value (Patient 1, 4 weeks, CBD 5.0 mg/kg/day, baseline 0.0)?
Its value is 14.0.

What about the “Seizure frequency, myoclonic” value (Patient 1, 4 weeks, CBD 5.0 mg/kg/day, baseline 75.0) of the same molecule?
The value was 4.0.

And the “Seizure frequency, focal with impairment” value (Patient 1, 4 weeks, CBD 5.0 mg/kg/day, baseline 100.0)?
The value was 14.0.

What about the “Seizure frequency, absence” value (Patient 1, 4 weeks, CBD 5.0 mg/kg/day, baseline 2500.0) of the same molecule?
Its value is 800.0.

And the “Seizure frequency, tonic-clonic” value (Patient 1, 8 weeks, CBD 10.0 mg/kg/day, baseline 0.0)?
Its value is 20.0.

What about the “Seizure frequency, myoclonic” value (Patient 1, 8 weeks, CBD 10.0 mg/kg/day, baseline 75.0) of the same molecule?
The value was 0.0.

And the “Seizure frequency, focal with impairment” value (Patient 1, 8 weeks, CBD 10.0 mg/kg/day, baseline 100.0)?
Its value is 12.0.

What about the “Seizure frequency, absence” value (Patient 1, 8 weeks, CBD 10.0 mg/kg/day, baseline 2500.0) of the same molecule?
The value was 1390.0.

What about the “Seizure frequency, tonic-clonic” value (Patient 1, 16 weeks, CBD 15.0 mg/kg/day, baseline 0.0) of the same molecule?
Its value is 20.0.

What about the “Seizure frequency, myoclonic” value (Patient 1, 16 weeks, CBD 15.0 mg/kg/day, baseline 75.0) of the same molecule?
Its value is 0.0.

What about the “Seizure frequency, focal with impairment” value (Patient 1, 16 weeks, CBD 15.0 mg/kg/day, baseline 100.0) of the same molecule?
The value was 7.0.

And the “Seizure frequency, absence” value (Patient 1, 16 weeks, CBD 15.0 mg/kg/day, baseline 2500.0)?
Its value is 250.0.

What about the “Seizure frequency, tonic-clonic” value (Patient 1, 24 weeks, CBD 20.0 mg/kg/day, baseline 0.0) of the same molecule?
Its value is 79.6.

What about the “Seizure frequency, myoclonic” value (Patient 1, 24 weeks, CBD 20.0 mg/kg/day, baseline 75.0) of the same molecule?
Its value is 0.0.

And the “Seizure frequency, focal with impairment” value (Patient 1, 24 weeks, CBD 20.0 mg/kg/day, baseline 100.0)?
The value was 0.0.

What about the “Seizure frequency, absence” value (Patient 1, 24 weeks, CBD 20.0 mg/kg/day, baseline 2500.0) of the same molecule?
The value was 398.0.

What about the “Seizure frequency, tonic-clonic” value (Patient 1, 36 weeks, CBD 25.0 mg/kg/day, baseline 0.0) of the same molecule?
Its value is 31.3.

What about the “Seizure frequency, myoclonic” value (Patient 1, 36 weeks, CBD 25.0 mg/kg/day, baseline 75.0) of the same molecule?
Its value is 0.0.

And the “Seizure frequency, focal with impairment” value (Patient 1, 36 weeks, CBD 25.0 mg/kg/day, baseline 100.0)?
Its value is 0.0.

What about the “Seizure frequency, absence” value (Patient 1, 36 weeks, CBD 25.0 mg/kg/day, baseline 2500.0) of the same molecule?
The value was 466.6.

What about the “Seizure frequency, tonic-clonic” value (Patient 1, 48 weeks, CBD 25.0 mg/kg/day, baseline 0.0) of the same molecule?
The value was 16.0.

And the “Seizure frequency, myoclonic” value (Patient 1, 48 weeks, CBD 25.0 mg/kg/day, baseline 75.0)?
Its value is 0.0.

And the “Seizure frequency, focal with impairment” value (Patient 1, 48 weeks, CBD 25.0 mg/kg/day, baseline 100.0)?
The value was 0.0.

What about the “Seizure frequency, absence” value (Patient 1, 48 weeks, CBD 25.0 mg/kg/day, baseline 2500.0) of the same molecule?
The value was 231.7.

And the “Reduction in absence seizures over the treatment period” value [1]?
Its value is 90.7%.

And the “Reduction in focal seizures with impairment over the treatment period” value [1]?
The value was 100%.

What about the “Reduction in myoclonic seizures over the treatment period” value [1] of the same molecule?
The value was 100%.

What about the “Seizure frequency, tonic-clonic” value (Patient 2, 4 weeks, CBD 25.0 mg/kg/day, baseline 1.0) of the same molecule?
The value was 0.0.

And the “Seizure frequency, absence” value [2]?
Its value is 6.0.

What about the “Seizure frequency, focal without impairment” value [2] of the same molecule?
Its value is 8.0.

What about the “Seizure frequency, tonic” value (Patient 2, 4 weeks, CBD 25.0 mg/kg/day, baseline 32.0) of the same molecule?
The value was 44.0.

And the “Seizure frequency, tonic-clonic” value (Patient 2, 8 weeks, CBD 25.0 mg/kg/day, baseline 1.0)?
The value was 0.0.

And the “Seizure frequency, absence” value [3]?
Its value is 0.0.

And the “Seizure frequency, focal without impairment” value [3]?
The value was 0.0.

And the “Seizure frequency, tonic” value (Patient 2, 8 weeks, CBD 25.0 mg/kg/day, baseline 32.0)?
Its value is 24.0.

And the “Seizure frequency, tonic-clonic” value (Patient 2, 24 weeks, CBD 25.0 mg/kg/day, baseline 1.0)?
The value was 0.5.

And the “Seizure frequency, absence” value [4]?
Its value is 12.0.

And the “Seizure frequency, focal without impairment” value [4]?
Its value is 17.0.

What about the “Seizure frequency, tonic” value (Patient 2, 24 weeks, CBD 25.0 mg/kg/day, baseline 32.0) of the same molecule?
The value was 56.0.

What about the “Reduction in tonic-clonic seizures over the treatment period” value (Patient 2, treated for 24 weeks, vs baseline) of the same molecule?
The value was 50%.

And the “Seizure frequency, tonic-clonic” value (Patient 3, 2 weeks, CBD 5.0 mg/kg/day, baseline 6.0)?
Its value is 8.0.

What about the “Seizure frequency, myoclonic” value (Patient 3, 2 weeks, CBD 5.0 mg/kg/day, baseline 32.0) of the same molecule?
Its value is 6.0.

And the “Seizure frequency, tonic-clonic” value (Patient 3, 4 weeks, CBD 10.0 mg/kg/day, baseline 6.0)?
Its value is 5.3.

And the “Seizure frequency, myoclonic” value (Patient 3, 4 weeks, CBD 10.0 mg/kg/day, baseline 32.0)?
Its value is 9.3.

What about the “Seizure frequency, tonic-clonic” value (Patient 3, 8 weeks, CBD 20.0 mg/kg/day, baseline 6.0) of the same molecule?
The value was 6.0.

What about the “Seizure frequency, myoclonic” value (Patient 3, 8 weeks, CBD 20.0 mg/kg/day, baseline 32.0) of the same molecule?
The value was 16.0.

What about the “Seizure frequency, tonic-clonic” value (Patient 3, 16 weeks, CBD 25.0 mg/kg/day, baseline 6.0) of the same molecule?
Its value is 11.0.

And the “Seizure frequency, myoclonic” value (Patient 3, 16 weeks, CBD 25.0 mg/kg/day, baseline 32.0)?
The value was 4.0.

What about the “Seizure frequency, tonic-clonic” value (Patient 3, 36 weeks, CBD 30.0 mg/kg/day, baseline 6.0) of the same molecule?
Its value is 2.6.

What about the “Seizure frequency, myoclonic” value (Patient 3, 36 weeks, CBD 30.0 mg/kg/day, baseline 32.0) of the same molecule?
Its value is 9.3.

And the “Seizure frequency, tonic-clonic” value (Patient 3, 48 weeks, CBD 35.0 mg/kg/day, baseline 6.0)?
The value was 7.7.

And the “Seizure frequency, myoclonic” value (Patient 3, 48 weeks, CBD 35.0 mg/kg/day, baseline 32.0)?
The value was 18.4.

What about the “Seizure frequency, tonic-clonic” value (Patient 3, 60 weeks, CBD 35.0 mg/kg/day, baseline 6.0) of the same molecule?
Its value is 6.6.

And the “Seizure frequency, myoclonic” value (Patient 3, 60 weeks, CBD 35.0 mg/kg/day, baseline 32.0)?
Its value is 19.4.

And the “Seizure frequency, tonic-clonic” value (Patient 3, 72 weeks, CBD 30.0 mg/kg/day, baseline 6.0)?
The value was 3.4.

What about the “Seizure frequency, myoclonic” value (Patient 3, 72 weeks, CBD 30.0 mg/kg/day, baseline 32.0) of the same molecule?
The value was 9.7.

What about the “Seizure frequency, tonic-clonic” value (Patient 3, 96 weeks, CBD 30.0 mg/kg/day, baseline 6.0) of the same molecule?
Its value is 1.0.

And the “Seizure frequency, myoclonic” value (Patient 3, 96 weeks, CBD 30.0 mg/kg/day, baseline 32.0)?
Its value is 13.8.

And the “Seizure frequency, tonic-clonic” value (Patient 3, 108 weeks, CBD 30.0 mg/kg/day, baseline 6.0)?
The value was 0.9.

And the “Seizure frequency, myoclonic” value (Patient 3, 108 weeks, CBD 30.0 mg/kg/day, baseline 32.0)?
The value was 13.8.

What about the “Reduction in myoclonic seizures over the treatment period” value [5] of the same molecule?
Its value is 56.9%.

And the “Reduction in tonic-clonic seizures over the treatment period” value [5]?
Its value is 85%.

And the “Seizure frequency, tonic-clonic” value (Patient 4, 2 weeks, CBD 5.0 mg/kg/day, baseline 10.0)?
The value was 2.0.

What about the “Seizure frequency, focal with impairment” value (Patient 4, 2 weeks, CBD 5.0 mg/kg/day, baseline 14.0) of the same molecule?
The value was 4.0.

And the “Seizure frequency, atonic” value (Patient 4, 2 weeks, CBD 5.0 mg/kg/day)?
Its value is 0.0.

What about the “Seizure frequency, tonic-clonic” value (Patient 4, 4 weeks, CBD 10.0 mg/kg/day, baseline 10.0) of the same molecule?
Its value is 2.0.

And the “Seizure frequency, focal with impairment” value (Patient 4, 4 weeks, CBD 10.0 mg/kg/day, baseline 14.0)?
The value was 2.0.

And the “Seizure frequency, atonic” value (Patient 4, 4 weeks, CBD 10.0 mg/kg/day)?
The value was 1.0.

What about the “Seizure frequency, tonic-clonic” value (Patient 4, 8 weeks, CBD 20.0 mg/kg/day, baseline 10.0) of the same molecule?
Its value is 0.0.

What about the “Seizure frequency, focal with impairment” value (Patient 4, 8 weeks, CBD 20.0 mg/kg/day, baseline 14.0) of the same molecule?
Its value is 0.0.

What about the “Seizure frequency, atonic” value (Patient 4, 8 weeks, CBD 20.0 mg/kg/day) of the same molecule?
Its value is 0.0.

And the “Seizure frequency, tonic-clonic” value (Patient 4, 12 weeks, CBD 20.0 mg/kg/day, baseline 10.0)?
Its value is 0.0.

What about the “Seizure frequency, focal with impairment” value (Patient 4, 12 weeks, CBD 20.0 mg/kg/day, baseline 14.0) of the same molecule?
Its value is 0.0.

And the “Seizure frequency, atonic” value (Patient 4, 12 weeks, CBD 20.0 mg/kg/day)?
The value was 5.0.
